Where two headings read alike, the source gives them in different places. Positions of bridges follow the written chain, without caps; N, C: chain ends. Residues, ends and D or L forms follow the SMILES beside them.
How the values were obtained:
Experiment in all cases: biochemical
KLK5 = target: T1, KLK5 (Homo sapiens, UniProt Q9Y337); assay type: binding; settings: for Stoichiometry (N) / ΔH / ΔS / ΔG / Ka: ITC; for ΔG: 25°C; for Ka: 25°C (Table S2, unit not given)
T1 construct: purchased Novoprotein
T1 sequence (Q9Y337 23-293): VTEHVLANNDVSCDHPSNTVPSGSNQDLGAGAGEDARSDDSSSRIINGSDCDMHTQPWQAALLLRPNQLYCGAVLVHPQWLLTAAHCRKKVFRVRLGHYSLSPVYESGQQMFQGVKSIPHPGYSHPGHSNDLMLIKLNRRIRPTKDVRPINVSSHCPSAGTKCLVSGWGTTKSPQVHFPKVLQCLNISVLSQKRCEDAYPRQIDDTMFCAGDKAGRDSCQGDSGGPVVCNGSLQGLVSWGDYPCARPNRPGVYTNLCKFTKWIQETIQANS
Method: ITC experiments were performed on a MicroCal iTC200 calorimeter (GE Healthcare, Uppsala, Sweden) at 298.15 K with a stirring speed of 750 revolutions per minute. Concentrated (450 μM) ligand solutions were injected into protein (KLK5) solution (20 μM, 280 μL sample volume) in the sample cell. Injection volumes were 2 μL for I10H and Analogue 1 and 1 μL for Analogue 2 and 6 with a spacing of 120 seconds between each injection. Concentrations of ligands were determined by dried weight and they were reconstituted to 10 mM stock in H2O. Concentration of KLK5 was determined by UV280 calculated with an extinction coefficient of 38680 and molecular weight of 32KDa (including weight of glycosylation). The protein solution were buffer exchanged using spin column to 1xPBS (137 mM NaCl, 2.7 mM KCl, 4.3 mM Na2HPO4, 1.47 mM KH2PO4 pH 8.0) or 20 mM MES buffer (with 150 mM NaCl, pH 5.5). Ligand stocks were diluted in those buffers (4.5 μL + 95.5 μL buffer), and then equal v/v % of H2O was added to the protein solution after buffer exchange to ensure matching buffer contents. Heat of dilution was undetectable in control experiments. Data were analyzed using OriginLab version 7.0.

KLK7 = target: T2, KLK7 (Homo sapiens, UniProt P49862); settings: for inhibition at 11 µM: read-out: % inhibition of KLK7
T2 construct: purchased R&D
Method: (§1) All assays were performed on 96-well microplates and the change in relative fluorescence unit (RFU) was measured by fluorescence spectrometer (BMG FLUOstar OPTIMA). The excitation/emission wavelength was 360/460 nm for the substrate Boc-VPR-AMC (Bachem AG, Hauptstrasse, Switzerland) and MeOSuc-AAPV-AMC (Bachem AG, Hauptstrasse, Switzerland) and 485/520 nm for BODIPY_FL casein (Invitrogen, Carlsbad, US). Stock solution of Boc-VPR-AMC was prepared by dissolving the solid in dimethyl sulfoxide to 100 mM and 10 mM for MeOSuc-AAPV. For BODIPY_FL casein, it was reconstituted to 1 mg/mL in 1xPBS. […] The % of inhibition was calculated by the following equation: % of Inhibition=(1−(Sample RFU − Min RFU)/(Max RFU − Min RFU)) X100
(§2) Each inhibition curves were done in triplicates with a minimum of five concentration points fitted. Fitting of each curve was done using SigmaPlot with the Four Parameter Logistic Function and the IC50 calculated. […] All tested compounds were reconstituted to stock solution in water.
(§3) Recombinant KLK7, KLK8 and KLK14 (>95% purity by SDS-PAGE, endotoxin <0.1 ng/μg, R&D, Minneapolis, U.S.) stocks were diluted with 1xPBS to a concentration of 120 nM. KLK7 and KLK14 were activated by addition of 1 mM f/c CaCl2 (Sigma, Dorset, U.K.), 0.05% v/v Brij35 (Sigma, Dorset, U.K.), 20 nM f/c thermolysin (Sigma, Dorset, U.K.) and incubated at 37°C for 1 hour. The reaction was stopped by addition of ethylenediaminetetraacetic acid (EDTA, 50 mM f/c). KLK8 was activated by addition of 11 nM f/c lysyl endopeptidase (Santa Cruz Biotechnology, Dallas, U.S.) and incubation at 37°C for 0.5 hour. […] The RFU value reached by the thermolysin control was used as the minimum RFU for calculating the % of inhibition for KLK7.
(§4) The diluent for all the tested compounds, protein and substrate (except KLK7, which was done with 10 mM Tris pH 7.8) was 1xPBS pH 8.0–8.9. The serially diluted ligands were mixed with diluted bovine trypsin (Sigma, Dorset, U.K.) or activated KLK14, or KLK5, or activated KLK8 or matriptase (catalytic domain only, >90% purity by SDS-PAGE, endotoxin <0.1 ng/μg, R&D, Minneapolis, U.S.) or activated KLK7 or human neutrophil elastase (purified from human plasma, >95% purity by SDS-PAGE, Abcam, Cambridge, U.K.) or porcine pancreatic elastase 1 (Sigma, Dorset, U.K.) or human plasma kallikrein or human plasma plasmin (purified from human plasma, ≥95% purity by SDS-PAGE, BioVision, Milpitas, U.S.). 20μL of the ligand-protein mixture was pipetted to a well of a 96-well microplate in triplicates. The reaction was started by addition of 90–100 μL of the diluted substrate solution (contained 0.05% v/v Brij35) and the plate incubated at 25°C but 37°C for KLK7. RFU reading for each well was taken 6 minutes (trypsin) or 15 minutes (KLK14, KLK5, KLK8, matriptase, human neutrophil elastase, porcine pancreatic elastase 1, plasma kallikrein and plasmin) or 20 hours (KLK7) after substrate addition.

KLK8 = target: T3, KLK8 (Homo sapiens, UniProt O60259)
T3 construct: purchased R&D
T3 sequence (O60259 33-260): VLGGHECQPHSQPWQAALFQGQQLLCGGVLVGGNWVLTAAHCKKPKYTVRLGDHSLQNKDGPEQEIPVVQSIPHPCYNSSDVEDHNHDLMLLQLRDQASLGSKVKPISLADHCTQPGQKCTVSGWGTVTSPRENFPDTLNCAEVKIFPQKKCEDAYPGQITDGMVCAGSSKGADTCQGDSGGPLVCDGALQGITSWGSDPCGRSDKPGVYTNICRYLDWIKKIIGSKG
Method: as §1, §2, §3, §4

[1] = at 11 μM, enzyme 10 nM, BODIPY_FL casein 6.5 μg/mL, 37°C, 20 hours
[2] = enzyme 9 nM, Boc-VPR-AMC 42 μM, 25°C, 15 minutes

T2 sequence (P49862 30-253): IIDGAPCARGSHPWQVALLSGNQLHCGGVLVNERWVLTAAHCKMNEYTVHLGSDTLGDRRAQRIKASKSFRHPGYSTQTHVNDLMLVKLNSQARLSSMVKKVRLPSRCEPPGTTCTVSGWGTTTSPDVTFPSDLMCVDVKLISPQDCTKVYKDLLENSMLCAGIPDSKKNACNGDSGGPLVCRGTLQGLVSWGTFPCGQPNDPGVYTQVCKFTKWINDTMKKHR

Compound | Kd (KLK5) | increase in binding affinity for KLK5 from I10H (KLK5; ITC Kd) | Stoichiometry (N) (KLK5; 1xPBS pH 8.0, 25°C) | ΔH (KLK5; 1xPBS pH 8.0, 25°C) | ΔS (KLK5; 1xPBS pH 8.0, 25°C) | ΔG (KLK5) | Ka (KLK5) | IC50 (KLK7) | IC50 (KLK8) | inhibition at 11 µM (KLK7) | Kd (KLK5; 1xPBS pH 8.0, 25°C, read-out: ITC Kd) | inhibition at 11 µM (KLK7; [1]) | IC50 (KLK8; [2])
CC[C@H](C)[C@@H]1NC(=O)[C@H](CO)NC(=O)[C@H](CCCNC(=N)N)NC(=O)[C@H]([C@@H](C)O)NC(=O)[C@@H]2CSSC[C@H](NC(=O)[C@H](Cc3c[nH]cn3)NC(=O)[C@@H]3CCCN3C(=O)[C@@H]3CCCN3C1=O)C(=O)N[C@@H](Cc1c[nH]c3ccccc13)C(=O)N1CCC[C@H]1C(=O)N[C@@H](CC(=O)O)C(=O)NCC(=O)N[C@@H](CCCNC(=N)N)C(=O)N2 [Analogue 6] (cyclo(CTRSIPPHCWPDGR); disulfide 1-9) | 20 nM | around 25 times | 1.01±0.01 | 2.014 ± 0.017 kcal/mol | 42.0 cal mol^-1 kelvin^-1 | -10.51 kcal/mol | 5.0E7±1.2E7 | 534 ± 29 nM | 373 ± 31 nM |  |  |  | 
CC[C@H](C)[C@@H]1NC(=O)[C@H](CO)NC(=O)[C@H](CCCCN)NC(=O)[C@H]([C@@H](C)O)NC(=O)[C@@H]2CSSC[C@H](NC(=O)[C@H](Cc3c[nH]cn3)NC(=O)[C@@H]3CCCN3C(=O)[C@@H]3CCCN3C1=O)C(=O)N[C@@H](Cc1c[nH]c3ccccc13)C(=O)N1CCC[C@H]1C(=O)N[C@@H](CC(=O)O)C(=O)NCC(=O)N[C@@H](CCCNC(=N)N)C(=O)N2 [Analogue 2] (cyclo(CTKSIPPHCWPDGR); disulfide 1-9) | 96 nM |  | 1.01±0.01 | 4.196 ± 0.065 kcal/mol | 46.2 cal mol^-1 kelvin^-1 | -9.579 kcal/mol | 1.0E7±1.8E6 |  | 563 ± 14 nM | 28% |  |  | 
CC[C@H](C)[C@@H]1NC(=O)[C@H](CO)NC(=O)[C@H](CCCCN)NC(=O)[C@H]([C@@H](C)O)NC(=O)[C@@H]2CSSC[C@H](NC(=O)[C@H](Cc3c[nH]cn3)NC(=O)[C@@H]3CCCN3C(=O)[C@@H]3CCCN3C1=O)C(=O)N[C@@H](Cc1ccccc1)C(=O)N1CCC[C@H]1C(=O)N[C@@H](CC(=O)O)C(=O)NCC(=O)N[C@@H](CCCNC(=N)N)C(=O)N2 [Analogue I10H] (cyclo(CFPDGRCTKSIPPH); disulfide 1-7) |  |  | 1.06±0.02 | 1.963 ± 0.051 kcal/mol | 35.5 cal mol^-1 kelvin^-1 | -8.621 kcal/mol | 2.1E6±5.6E5 |  |  |  | 485 nM | 0% | 1680 ± 51 nM
CC[C@H](C)[C@@H]1NC(=O)[C@@H]2CCCN2C(=O)[C@@H]2CCCN2C(=O)[C@H]([C@@H](C)CC)NC(=O)[C@H](CO)NC(=O)[C@H](CCCCN)NC(=O)[C@H]([C@@H](C)O)NC(=O)[C@@H]2CSSC[C@H](NC1=O)C(=O)N[C@@H](Cc1ccccc1)C(=O)N1CCC[C@H]1C(=O)N[C@@H](CC(=O)O)C(=O)NCC(=O)N[C@@H](CCCNC(=N)N)C(=O)N2 [Native SFTI, Sunflower Trypsin Inhibitor 1, reference compound] |  |  |  |  |  |  |  |  |  |  |  | 18% | 1290 ± 251 nM
